# Reference: patent EP0286418A1, “Anti-retroviral agents and delivery systems for the same” (priority 1987, dated 1988)
# Columns and labels:
# [1] = trypan blue exclusion test; format: cell-based; conditions: human, 8.e6 and u.1 cells; at all doses; read-out: viable cells (trypan blue exclusion)
# Text: Tritiated thymidine uptake was used to assess toxic effects of ddCTP liposomes on the lymphoid (8.E6) and promonocytic (U.1) clones. […] As judged by trypan blue exclusion test, the cells remained more than 90% viable at all doses.
# [2] = system: monocytes; experiment: percent lysis of Candida albicans by monocytes; format: cell-based, Human; conditions: effect on monocyte function
# Method: (§1) Human peripheral blood mononuclear cells were obtained by standard procedures employing continuous flow cell separation (leukapheresis), such as described in Wahl, et al., Cellular Immunol. 85:373-383 (1984). The preparation was diluted in phosphate-buffered saline and layered onto gradients of Ficoll-Paque (Pharmacia-PL Biochemicals, Piscataway, N.J., USA). After centrifugation, mononuclear cells were pipetted from the interface, washed, and suspended in DMEM-GG-FCS. They were then fractionated by countercurrent centrifugal elutriation. The procedure comprises the Beckman elutriation system including a J-21 Beckman Centrifuge, a JE-6 elutriator rotor, a stroboscope, and a Masterflex pump and pumphead. The cells were loaded into the rotor and fractionated by elution at increasing flow rates. Fractions 7 and 8, highly enriched for monocytes, were pooled for use.
# [3] = system: HIV-1 (Ba-L); experiment: inhibition of HIV proliferation in monocytes (p24 antigen ELISA); format: cell-based; conditions: HIV-infected human monocytes; compared with ddCTP liposomes
# [4] = system: monocytes; experiment: production of prostaglandin E2 by monocytes; format: cell-based, Human; conditions: effect on monocyte function
# Method: as §1
# [5] = in vitro; format: in vitro ADME
# Method: When the same incubations were done in the absence of monocytes, the results were essentially identical.
# Studies were conducted under conditions mimicking those of anti-viral tests. ddCMP: dideoxycytidine monophosphate. Data points represent integrals under HPLC peaks from gradient elution on a VYDAC nucleotide column.
# [6] = leakage from liposomes at 37°C in DMEM-GG-FCS; format: physicochemical
# Method: The release of liposome contents as a function of time was assessed by centrifugal elution of free ddCTP through Centrifree filters (Amicon, Danvers, Mass., USA). Typically, 100 microliters of suspension was centrifuged at 1500 G for about 10 minutes, 100 microliters additional phosphate-buffered saline was added, and the filter was again spun for about 10 minutes. Pooled filtrate was counted for ³H-ddCTP to determine released drug, and the filter itself was similarly counted to establish the mass balance. Very little ¹⁴C-cholesteryl oleate was ever found in the filtrate, indicating that liposomal lipid was not passing through the filter. […] Leakage tests were also conducted under conditions mimicking those of the viral experiments infra, i.e., in tissue culture plates with 96 flat-bottom wells (Costar, Cambridge, Mass., USA) at 37°C in a CO₂ incubator in Dulbecco's Minimal Eagles Medium supplemented with gentamycin, glutamine, and 10% fetal calf serum (DMEM-GG-FCS). […] In contrast, 50% of the ddC was released within 1 hour, and 95% within 4 hours.
# [7] = in vitro; format: in vitro ADME; conditions: serum-containing medium with cells
# [8] = target: T1, HIV reverse transcriptase (Human immunodeficiency virus type 1 group M subtype B, UniProt P03367); experiment: reverse transcriptase assay on supernatant of chronically HIV-producing cells; format: cell-based; conditions: for activity at 10 µg/mL: dose 10.0 micrograms/ml; for activity at 0.01 µg/mL: dose 0.01 micrograms/ml; for activity at 0.1 µg/mL: dose 0.1 micrograms/ml; for activity at 1 µg/mL: dose 1.0 micrograms/ml
# T1 construct: endogenous in cells; host or cells: U.1 (clone of promonocytic U937) and 8.E6 (clone of lymphoid A.301), chronically HIV-producing
# Method: Liposomes were tested for toxic effect on two types of cells which chronically produce HIV. One clone (8.E6) was derived from the lymphoid cell line A.301; the other clone (U.1) was derived from the promonocytic line U937. Cells (1×10⁶/well) in RPMI medium with 10% fetal calf serum were pipetted into a flat-bottom 96-well microtiter plate. To each well was added 50 microliters of solution containing ddCTP-liposomes, empty liposomes, free ddCTP or phosphate buffered saline. Fifty microliters of phorbol myristyl acetate (PMA) was then added to each well to a final concentration of 10⁻⁹ M for stimulation, or else 50 microliters of saline was added for non-stimulated configurations. The plates were incubated at 37°C in 7% CO₂ for about 48 hours. 100 microliters of supernatant was then taken from each well to analyze for reverse transcriptase (RT) activity using polyadenylate and oligo-deoxythymidine. To perform the RT assay, 10 microliters of supernatant containing RT was added to a cocktail containing poly A, oligo dT (Pharmacia, Inc. Piscataway, N.J., USA) MgCl₂, and ³²P-dTTP (Amersham) and incubated for 2 hours at 37°C. Ten microliters of the cocktail was then spotted onto DE81 paper, dried, and washed in 1X saline sodium citrate buffer. The paper was then dried, cut and counted on a Beckman LS 7000 scintillation counter.
# [9] = PMA-stimulated (1 nM) U.1 cells, normalized by average of empty liposome controls
# [10] = U.1 cells, no PMA, relative to controls with no drug
compound,measurement,setting,value
"Nc1ccn([C@H]2CC[C@@H](COP(=O)(O)OP(=O)(O)OP(=O)(O)O)O2)c(=O)n1 [ddCTP, 2ʹ,3ʹ-dideoxycytidine-5ʹ-triphosphate]",viability,[1],> 90%
same,percent lysis of Candida albicans,[2],No consistent effects
same,activity against p24 expression,[3],active at similar concentrations
same,production of prostaglandin E2,[4],No consistent effects
same,conversion to ddCMP,[5],largely converted to ddCMP
same,fraction present as ddC,[5],23%
same,Percent of total drug 3H as ddCTP,"[5]; 10% fetal calf serum medium, 0.5 h",39.6%
same,Percent of total drug 3H as ddCTP,"[5]; serum-containing medium with cells, 4 h",1.4%
same,Percent of total drug 3H as ddCTP,"[5]; serum-containing medium with cells, 6 h",1.4%
same,Percent of total drug 3H as ddCTP,"[5]; serum-containing medium without cells, 0.75 h",20.3%
same,Percent of total drug 3H as ddCTP,"[5]; serum-containing medium without cells, 1.5 h",19.5%
same,Percent of total drug 3H as ddCTP,"[5]; serum-containing medium without cells, 4 h",2.7%
same,Percent of total drug 3H as ddCTP,"[5]; serum-containing medium without cells, 6 h",0.6%
same,remaining at 72 h,"[5]; serum-containing medium without cells, Percent of total drug 3H as ddCTP",0%
same,% of total drug in liposomes,"[6]; absence of cells, 0 h",85.6%
same,% of total drug in liposomes,"[6]; absence of cells, 0.16 h",74.3%
same,% of total drug in liposomes,"[6]; absence of cells, 0.32 h",78.5%
same,% of total drug in liposomes,"[6]; absence of cells, 1 h",77.2%
same,% of total drug in liposomes,"[6]; absence of cells, 2 h",82.1%
same,% of total drug in liposomes,"[6]; absence of cells, 4 h",78.5%
same,% of total drug in liposomes,"[6]; absence of cells, 24 h",81.7%
same,% of total drug in liposomes,"[6]; absence of cells, 48 h",75.7%
same,% of total drug in liposomes,"[6]; absence of cells, 72 h",87.4%
same,leakage from liposomes,"[6]; over a period of 72 hours, presence or absence of adherent monocytes",Very little leakage
same,% of total drug in liposomes,"[6]; with adherent human monocytes, 0 h",84.4%
same,% of total drug in liposomes,"[6]; with adherent human monocytes, 0.16 h",83.8%
same,% of total drug in liposomes,"[6]; with adherent human monocytes, 0.32 h",84.4%
same,% of total drug in liposomes,"[6]; with adherent human monocytes, 1 h",78.0%
same,% of total drug in liposomes,"[6]; with adherent human monocytes, 2 h",83.3%
same,% of total drug in liposomes,"[6]; with adherent human monocytes, 4 h",82.9%
same,% of total drug in liposomes,"[6]; with adherent human monocytes, 24 h",75.9%
same,% of total drug in liposomes,"[6]; with adherent human monocytes, 48 h",68.0%
same,% of total drug in liposomes,"[6]; with adherent human monocytes, 72 h",78.4%
same,Percent of total drug 3H as ddCTP,[7]; 0.5 h,67.8%
same,remaining at 72 h,[7]; Percent of total drug 3H as ddCTP,0%
same,activity at 10 µg/mL,"[8]; 48 h, U.1 cells, no PMA, relative to controls with no drug",69 ± 21%
same,activity at 0.01 µg/mL,[8]; [9],84%
same,activity at 0.1 µg/mL,[8]; [9],96%
same,activity at 1 µg/mL,[8]; [9],75%
same,activity at 10 µg/mL,[8]; [9],75%
same,activity at 0.01 µg/mL,[8]; [10],67 ± 19%
same,activity at 0.1 µg/mL,[8]; [10],80 ± 12%
same,activity at 1 µg/mL,[8]; [10],61 ± 4%
